Source: ChEMBL document CHEMBL3991601, “The target landscape of clinical kinase drugs” (Science, 2017)
The source made the active and inactive calls. Rule as the data show it, for most assays here: actives have a measured Kd and inactives only a lower limit.

Legend:
Activin receptor type-1B = biological target: T1, Activin receptor type-1B (Homo sapiens, UniProt P36896)
T1 sequence (P36896 whole entry): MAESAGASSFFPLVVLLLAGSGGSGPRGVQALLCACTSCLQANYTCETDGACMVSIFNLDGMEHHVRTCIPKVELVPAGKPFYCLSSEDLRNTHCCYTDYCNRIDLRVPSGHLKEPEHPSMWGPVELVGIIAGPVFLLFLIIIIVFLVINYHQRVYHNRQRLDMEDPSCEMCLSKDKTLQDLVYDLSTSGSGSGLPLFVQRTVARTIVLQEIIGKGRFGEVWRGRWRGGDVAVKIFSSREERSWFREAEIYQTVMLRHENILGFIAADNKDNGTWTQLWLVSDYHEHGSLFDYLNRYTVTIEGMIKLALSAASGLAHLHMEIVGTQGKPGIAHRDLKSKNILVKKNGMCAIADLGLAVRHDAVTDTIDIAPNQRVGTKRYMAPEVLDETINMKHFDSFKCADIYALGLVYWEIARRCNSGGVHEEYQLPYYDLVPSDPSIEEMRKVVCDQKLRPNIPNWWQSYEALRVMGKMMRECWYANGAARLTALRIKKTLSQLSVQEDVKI

[1] = biological target: Serine/threonine-protein kinase MRCK alpha (Homo sapiens, UniProt Q5VT25)
[2] = biological target: T2, Discoidin domain-containing receptor 2 (Homo sapiens, UniProt Q16832)
T2 sequence (Q16832 whole entry): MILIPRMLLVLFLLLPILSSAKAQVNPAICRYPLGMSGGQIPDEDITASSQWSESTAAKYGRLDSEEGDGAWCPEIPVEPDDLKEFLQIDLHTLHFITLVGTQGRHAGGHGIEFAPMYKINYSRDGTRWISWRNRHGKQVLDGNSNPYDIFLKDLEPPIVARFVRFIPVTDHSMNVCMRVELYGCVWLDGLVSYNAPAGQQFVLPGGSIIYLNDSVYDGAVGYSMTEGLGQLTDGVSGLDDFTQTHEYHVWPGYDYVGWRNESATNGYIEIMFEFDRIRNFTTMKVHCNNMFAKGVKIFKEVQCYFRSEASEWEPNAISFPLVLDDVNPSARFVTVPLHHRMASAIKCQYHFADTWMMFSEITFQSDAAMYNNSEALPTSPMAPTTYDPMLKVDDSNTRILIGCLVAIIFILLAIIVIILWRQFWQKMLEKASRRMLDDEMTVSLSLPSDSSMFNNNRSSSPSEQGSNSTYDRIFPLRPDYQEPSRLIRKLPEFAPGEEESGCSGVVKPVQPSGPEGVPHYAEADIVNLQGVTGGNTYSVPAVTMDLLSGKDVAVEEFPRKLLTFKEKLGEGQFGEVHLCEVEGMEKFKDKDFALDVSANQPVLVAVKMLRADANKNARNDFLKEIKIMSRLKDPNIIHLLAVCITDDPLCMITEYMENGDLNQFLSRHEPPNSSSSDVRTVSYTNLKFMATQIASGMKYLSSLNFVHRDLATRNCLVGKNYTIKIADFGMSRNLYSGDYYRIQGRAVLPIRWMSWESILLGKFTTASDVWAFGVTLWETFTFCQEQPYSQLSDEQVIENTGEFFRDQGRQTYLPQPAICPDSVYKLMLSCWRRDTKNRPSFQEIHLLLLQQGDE

[3] = biological target: T3, ATP-dependent RNA helicase DDX42 (Homo sapiens, UniProt Q86XP3)
T3 sequence (Q86XP3 whole entry): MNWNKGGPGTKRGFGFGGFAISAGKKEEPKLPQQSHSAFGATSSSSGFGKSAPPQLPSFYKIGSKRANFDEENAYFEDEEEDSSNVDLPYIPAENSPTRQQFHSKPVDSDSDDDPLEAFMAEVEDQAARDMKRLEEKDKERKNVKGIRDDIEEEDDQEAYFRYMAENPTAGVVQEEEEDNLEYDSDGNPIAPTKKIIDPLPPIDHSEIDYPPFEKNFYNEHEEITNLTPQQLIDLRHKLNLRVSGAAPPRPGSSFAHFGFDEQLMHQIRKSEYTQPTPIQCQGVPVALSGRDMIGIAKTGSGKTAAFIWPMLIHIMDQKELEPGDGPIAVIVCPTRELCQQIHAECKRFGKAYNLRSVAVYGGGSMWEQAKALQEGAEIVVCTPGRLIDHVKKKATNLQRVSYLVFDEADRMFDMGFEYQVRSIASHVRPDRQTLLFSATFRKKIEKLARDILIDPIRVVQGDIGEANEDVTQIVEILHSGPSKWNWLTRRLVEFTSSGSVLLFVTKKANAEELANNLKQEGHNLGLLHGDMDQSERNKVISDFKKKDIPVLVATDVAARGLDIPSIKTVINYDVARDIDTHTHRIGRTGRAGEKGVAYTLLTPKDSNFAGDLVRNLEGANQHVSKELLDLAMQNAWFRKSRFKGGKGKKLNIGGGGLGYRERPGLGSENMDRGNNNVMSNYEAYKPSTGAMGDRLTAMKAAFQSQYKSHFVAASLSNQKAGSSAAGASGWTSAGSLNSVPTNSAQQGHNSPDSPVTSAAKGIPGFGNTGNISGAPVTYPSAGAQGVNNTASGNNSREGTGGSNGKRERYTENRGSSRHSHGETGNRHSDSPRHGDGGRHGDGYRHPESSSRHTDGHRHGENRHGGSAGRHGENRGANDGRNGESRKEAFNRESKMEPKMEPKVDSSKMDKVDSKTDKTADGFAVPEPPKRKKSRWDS

[4] = biological target: Eukaryotic translation initiation factor 2-alpha kinase 1 (Homo sapiens, UniProt Q9BQI3)
Ephrin type-A receptor 2 = Ephrin type-A receptor 2 (Homo sapiens, UniProt P29317)
Insulin receptor = Insulin receptor (Homo sapiens, UniProt P06213)
[5] = biological target: Serine/threonine-protein kinase pim-1 (Homo sapiens, UniProt P11309)
[6] = biological target: Rho-associated protein kinase 2 (Homo sapiens, UniProt O75116)
[7] = biological target: Proto-oncogene tyrosine-protein kinase Src (Homo sapiens, UniProt P12931)
Also: in the data inactive means no Kd found up to 30 µM.

Rho-associated protein kinase 2, sequence (O75116 whole entry): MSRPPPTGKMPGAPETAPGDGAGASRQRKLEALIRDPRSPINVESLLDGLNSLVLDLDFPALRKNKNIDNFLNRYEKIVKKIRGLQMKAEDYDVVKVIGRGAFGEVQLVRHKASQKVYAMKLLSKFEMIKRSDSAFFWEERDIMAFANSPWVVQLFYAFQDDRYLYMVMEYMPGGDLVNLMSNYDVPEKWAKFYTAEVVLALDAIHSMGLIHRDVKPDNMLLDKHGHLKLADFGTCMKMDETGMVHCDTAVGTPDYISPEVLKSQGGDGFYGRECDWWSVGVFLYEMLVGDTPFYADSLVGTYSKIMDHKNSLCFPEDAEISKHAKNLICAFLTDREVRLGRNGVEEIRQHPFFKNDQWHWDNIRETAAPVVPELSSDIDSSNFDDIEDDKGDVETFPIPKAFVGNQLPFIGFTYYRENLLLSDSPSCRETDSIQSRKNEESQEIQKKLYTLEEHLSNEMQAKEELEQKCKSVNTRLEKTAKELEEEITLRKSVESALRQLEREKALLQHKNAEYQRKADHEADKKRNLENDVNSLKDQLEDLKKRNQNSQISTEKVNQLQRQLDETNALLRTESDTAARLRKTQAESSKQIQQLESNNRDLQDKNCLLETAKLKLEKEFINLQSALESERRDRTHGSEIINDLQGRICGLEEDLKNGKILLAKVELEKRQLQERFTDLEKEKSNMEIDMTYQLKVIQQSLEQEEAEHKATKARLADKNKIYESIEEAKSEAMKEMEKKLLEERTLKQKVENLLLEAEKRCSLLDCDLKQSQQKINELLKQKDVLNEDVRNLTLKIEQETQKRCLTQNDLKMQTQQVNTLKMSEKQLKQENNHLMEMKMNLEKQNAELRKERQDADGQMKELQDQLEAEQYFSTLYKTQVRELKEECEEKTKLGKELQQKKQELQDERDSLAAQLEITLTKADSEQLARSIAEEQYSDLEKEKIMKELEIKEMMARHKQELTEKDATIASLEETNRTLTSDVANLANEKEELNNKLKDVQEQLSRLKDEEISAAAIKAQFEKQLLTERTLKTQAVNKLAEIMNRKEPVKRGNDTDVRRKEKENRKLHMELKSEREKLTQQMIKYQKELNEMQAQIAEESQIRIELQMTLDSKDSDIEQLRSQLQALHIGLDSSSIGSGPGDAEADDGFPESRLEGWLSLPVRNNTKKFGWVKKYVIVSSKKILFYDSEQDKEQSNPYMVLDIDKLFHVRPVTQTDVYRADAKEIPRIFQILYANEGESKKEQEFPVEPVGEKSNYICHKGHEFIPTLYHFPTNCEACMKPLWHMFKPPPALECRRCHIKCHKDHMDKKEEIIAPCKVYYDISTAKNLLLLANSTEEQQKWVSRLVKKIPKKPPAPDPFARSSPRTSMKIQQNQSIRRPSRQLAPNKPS
Proto-oncogene tyrosine-protein kinase Src, sequence (P12931 2-536 limits assumed): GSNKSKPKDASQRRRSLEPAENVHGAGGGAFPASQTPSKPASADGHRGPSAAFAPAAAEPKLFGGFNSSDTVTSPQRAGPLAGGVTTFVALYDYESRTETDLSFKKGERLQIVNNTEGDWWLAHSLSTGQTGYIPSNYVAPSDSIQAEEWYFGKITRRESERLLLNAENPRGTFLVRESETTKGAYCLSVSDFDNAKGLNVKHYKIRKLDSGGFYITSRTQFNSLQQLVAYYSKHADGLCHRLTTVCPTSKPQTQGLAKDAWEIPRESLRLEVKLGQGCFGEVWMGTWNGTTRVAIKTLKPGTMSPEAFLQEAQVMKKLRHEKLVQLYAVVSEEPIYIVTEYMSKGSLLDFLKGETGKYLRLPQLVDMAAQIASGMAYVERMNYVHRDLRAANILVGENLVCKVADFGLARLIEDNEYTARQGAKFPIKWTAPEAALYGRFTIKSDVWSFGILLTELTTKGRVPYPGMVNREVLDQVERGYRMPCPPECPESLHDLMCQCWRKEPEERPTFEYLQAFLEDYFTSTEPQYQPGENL
Serine/threonine-protein kinase pim-1, sequence (P11309 whole entry): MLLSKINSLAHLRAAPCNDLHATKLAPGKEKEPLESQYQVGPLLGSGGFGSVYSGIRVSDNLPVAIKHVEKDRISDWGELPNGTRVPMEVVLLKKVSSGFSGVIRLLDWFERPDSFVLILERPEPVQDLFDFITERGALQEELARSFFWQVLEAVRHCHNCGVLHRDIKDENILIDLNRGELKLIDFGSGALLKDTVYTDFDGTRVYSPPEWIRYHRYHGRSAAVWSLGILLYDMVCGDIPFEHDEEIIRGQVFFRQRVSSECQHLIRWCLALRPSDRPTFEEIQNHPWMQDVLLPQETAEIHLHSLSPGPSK
Serine/threonine-protein kinase MRCK alpha, sequence (Q5VT25 whole entry, the tested form may be a part): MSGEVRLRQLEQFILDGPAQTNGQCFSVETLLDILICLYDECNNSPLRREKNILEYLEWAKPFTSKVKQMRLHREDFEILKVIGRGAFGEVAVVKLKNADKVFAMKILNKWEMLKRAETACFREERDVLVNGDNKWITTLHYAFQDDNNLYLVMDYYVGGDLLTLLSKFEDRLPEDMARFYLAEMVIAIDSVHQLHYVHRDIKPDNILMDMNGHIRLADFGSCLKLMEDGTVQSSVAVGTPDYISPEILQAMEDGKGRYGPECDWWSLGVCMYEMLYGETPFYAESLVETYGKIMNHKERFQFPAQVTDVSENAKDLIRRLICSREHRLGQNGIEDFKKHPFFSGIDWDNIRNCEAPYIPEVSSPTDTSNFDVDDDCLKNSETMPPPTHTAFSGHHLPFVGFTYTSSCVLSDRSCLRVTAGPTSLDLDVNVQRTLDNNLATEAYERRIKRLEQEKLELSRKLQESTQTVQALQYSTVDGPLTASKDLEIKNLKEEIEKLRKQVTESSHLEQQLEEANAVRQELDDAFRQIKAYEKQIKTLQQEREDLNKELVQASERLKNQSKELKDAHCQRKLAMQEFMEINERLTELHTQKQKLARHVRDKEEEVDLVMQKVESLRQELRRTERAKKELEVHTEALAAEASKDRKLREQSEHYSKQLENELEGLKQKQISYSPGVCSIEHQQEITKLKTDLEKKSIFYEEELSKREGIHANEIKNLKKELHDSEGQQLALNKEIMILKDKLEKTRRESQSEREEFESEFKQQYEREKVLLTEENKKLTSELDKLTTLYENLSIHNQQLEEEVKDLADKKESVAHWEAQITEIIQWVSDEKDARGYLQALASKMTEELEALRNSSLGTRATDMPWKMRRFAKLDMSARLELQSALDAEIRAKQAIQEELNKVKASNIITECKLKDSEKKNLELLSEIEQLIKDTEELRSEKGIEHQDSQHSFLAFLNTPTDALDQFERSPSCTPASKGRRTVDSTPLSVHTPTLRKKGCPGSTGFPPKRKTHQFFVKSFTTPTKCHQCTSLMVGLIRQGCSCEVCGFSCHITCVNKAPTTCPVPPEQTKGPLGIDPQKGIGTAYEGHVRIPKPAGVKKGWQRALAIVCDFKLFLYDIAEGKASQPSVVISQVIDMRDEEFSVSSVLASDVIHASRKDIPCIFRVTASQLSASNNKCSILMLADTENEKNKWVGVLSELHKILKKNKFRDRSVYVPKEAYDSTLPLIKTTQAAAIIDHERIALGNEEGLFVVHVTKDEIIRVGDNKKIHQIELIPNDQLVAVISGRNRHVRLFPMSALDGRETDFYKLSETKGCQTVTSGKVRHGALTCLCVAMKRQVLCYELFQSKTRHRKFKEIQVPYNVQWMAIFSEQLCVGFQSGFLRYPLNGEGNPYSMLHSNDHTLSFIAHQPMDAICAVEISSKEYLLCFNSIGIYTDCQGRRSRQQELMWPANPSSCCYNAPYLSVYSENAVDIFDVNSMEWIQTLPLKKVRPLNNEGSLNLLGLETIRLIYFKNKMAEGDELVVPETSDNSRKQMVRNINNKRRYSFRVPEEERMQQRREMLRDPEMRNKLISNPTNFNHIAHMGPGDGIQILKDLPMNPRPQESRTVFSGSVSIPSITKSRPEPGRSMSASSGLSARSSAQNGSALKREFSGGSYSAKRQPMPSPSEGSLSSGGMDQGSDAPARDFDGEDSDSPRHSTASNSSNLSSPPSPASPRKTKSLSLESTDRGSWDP
Ephrin type-A receptor 2, sequence (P29317 whole entry): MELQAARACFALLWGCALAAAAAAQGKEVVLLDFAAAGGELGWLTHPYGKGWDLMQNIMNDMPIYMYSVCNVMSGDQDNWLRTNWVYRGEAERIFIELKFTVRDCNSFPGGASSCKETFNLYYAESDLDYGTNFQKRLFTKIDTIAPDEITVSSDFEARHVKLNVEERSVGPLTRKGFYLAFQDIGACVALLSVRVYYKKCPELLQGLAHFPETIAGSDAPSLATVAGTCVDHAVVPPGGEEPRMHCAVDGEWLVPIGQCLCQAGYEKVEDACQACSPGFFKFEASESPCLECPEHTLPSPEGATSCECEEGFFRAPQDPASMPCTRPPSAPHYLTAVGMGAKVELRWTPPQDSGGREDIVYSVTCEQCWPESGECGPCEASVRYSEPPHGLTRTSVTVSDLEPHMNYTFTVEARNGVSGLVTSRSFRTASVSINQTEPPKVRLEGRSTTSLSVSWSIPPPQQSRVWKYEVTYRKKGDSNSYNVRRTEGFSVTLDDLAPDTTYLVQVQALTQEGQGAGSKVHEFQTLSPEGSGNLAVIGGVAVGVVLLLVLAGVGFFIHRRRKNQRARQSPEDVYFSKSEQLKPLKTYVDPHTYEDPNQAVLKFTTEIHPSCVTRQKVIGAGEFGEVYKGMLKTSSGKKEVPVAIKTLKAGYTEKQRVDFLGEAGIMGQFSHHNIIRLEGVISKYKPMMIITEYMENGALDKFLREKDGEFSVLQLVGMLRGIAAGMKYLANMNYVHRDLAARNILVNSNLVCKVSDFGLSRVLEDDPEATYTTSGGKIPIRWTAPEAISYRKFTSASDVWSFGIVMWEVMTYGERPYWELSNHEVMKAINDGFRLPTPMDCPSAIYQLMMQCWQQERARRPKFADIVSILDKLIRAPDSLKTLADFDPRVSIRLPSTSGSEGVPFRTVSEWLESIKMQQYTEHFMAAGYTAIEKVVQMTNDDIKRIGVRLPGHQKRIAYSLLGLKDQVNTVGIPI

Row | Kd (Activin receptor type-1B) | Kd [1] | Kd [2] | Kd [3] | Kd [4] | Kd (Ephrin type-A receptor 2) | Kd (Insulin receptor) | Kd [5] | Kd [6] | Kd [7] | SMILES
1 | > 30 µM (inactive) | > 30 µM (inactive) | > 30 µM (inactive) | > 30 µM (inactive) | > 30 µM (inactive) | > 30 µM (inactive) | > 30 µM (inactive) | > 30 µM (inactive) | > 30 µM (inactive) | > 30 µM (inactive) | O=C(NC[C@H](O)CO)c1ccncc1Nc1ccc(I)cc1F [PIMASERTIB]
2 | > 30 µM (inactive) | > 30 µM (inactive) | > 30 µM (inactive) | > 30 µM (inactive) | > 30 µM (inactive) | > 30 µM (inactive) | > 30 µM (inactive) | > 30 µM (inactive) | > 30 µM (inactive) | > 30 µM (inactive) | O=C(NOC[C@H](O)CO)c1ccc(F)c(F)c1Nc1ccc(I)cc1F [MIRDAMETINIB]
3 | > 30 µM (inactive) | – | > 30 µM (inactive) | > 30 µM (inactive) | > 30 µM (inactive) | > 30 µM (inactive) | > 30 µM (inactive) | > 30 µM (inactive) | > 30 µM (inactive) | > 30 µM (inactive) | CNC(=O)c1cc(COc2nnc(Nc3ccc(Cl)cc3)c3ccoc23)ccn1 [TELATINIB]
4 | > 30 µM (inactive) | > 30 µM (inactive) | > 30 µM (inactive) | > 30 µM (inactive) | > 30 µM (inactive) | > 30 µM (inactive) | > 30 µM (inactive) | > 30 µM (inactive) | > 30 µM (inactive) | > 30 µM (inactive) | COc1ccc(-c2ccc3ncc4c(c3c2)n(-c2ccc(N3CCNCC3)c(C(F)(F)F)c2)c(=O)n4C)cn1 [BGT-226 FREE BASE]
5 | > 30 µM (inactive) | > 30 µM (inactive) | > 30 µM (inactive) | > 30 µM (inactive) | > 30 µM (inactive) | > 30 µM (inactive) | > 30 µM (inactive) | > 30 µM (inactive) | > 30 µM (inactive) | > 30 µM (inactive) | FC(F)(F)c1ccc(CNc2ccc(Cc3c[nH]c4ncc(Cl)cc34)cn2)cn1 [PEXIDARTINIB]
6 | > 30 µM (inactive) | > 30 µM (inactive) | > 30 µM (inactive) | > 30 µM (inactive) | > 30 µM (inactive) | > 30 µM (inactive) | > 30 µM (inactive) | > 30 µM (inactive) | > 30 µM (inactive) | > 30 µM (inactive) | S=C(NCc1ccc2c(c1)OCO2)N1CCN(c2ncnc3c2oc2ccccc23)CC1 [AMUVATINIB]
7 | > 30 µM (inactive) | > 30 µM (inactive) | > 30 µM (inactive) | > 30 µM (inactive) | > 30 µM (inactive) | > 30 µM (inactive) | > 30 µM (inactive) | > 30 µM (inactive) | – | > 30 µM (inactive) | O=S(=O)(c1cccc2c(O)nccc12)N1CCCNCC1 [HYDROXYFASUDIL]
8 | > 30 µM (inactive) | 0.561 µM (active) | > 30 µM (inactive) | – | > 30 µM (inactive) | > 30 µM (inactive) | > 30 µM (inactive) | > 30 µM (inactive) | 56.1 µM (active) | > 30 µM (inactive) | CC[C@@](C)(Nc1ccnc(-c2c[nH]c3ncccc23)n1)C(=O)NCC(F)(F)F [DECERNOTINIB]
9 | > 30 µM (inactive) | > 30 µM (inactive) | > 30 µM (inactive) | – | > 30 µM (inactive) | > 30 µM (inactive) | > 30 µM (inactive) | > 30 µM (inactive) | > 30 µM (inactive) | > 30 µM (inactive) | O[C@H]1CC[C@H](Nc2ncc3nc(Nc4c(F)cc(F)cc4F)n([C@H]4CCOC4)c3n2)CC1 [TANZISERTIB]
10 | > 30 µM (inactive) | > 30 µM (inactive) | > 30 µM (inactive) | – | > 30 µM (inactive) | 1.19 µM (active) | > 30 µM (inactive) | > 30 µM (inactive) | > 30 µM (inactive) | > 30 µM (inactive) | Cc1cc(-c2cc(OC(=O)c3ccccc3)ccc2Cl)cc2nnc(Nc3ccc(OCCN4CCCC4)cc3)nc12 [TG100-801]
11 | > 30 µM (inactive) | > 30 µM (inactive) | 19.3 µM (active) | – | > 30 µM (inactive) | > 30 µM (inactive) | > 30 µM (inactive) | > 30 µM (inactive) | > 30 µM (inactive) | > 30 µM (inactive) | Cc1cc(C(=O)Nc2cc(Oc3ccc4nc(NC(=O)C5CC5)cn4n3)ccc2C)n(C)n1 [TAK-593]
12 | > 30 µM (inactive) | > 30 µM (inactive) | > 30 µM (inactive) | – | > 30 µM (inactive) | > 30 µM (inactive) | > 30 µM (inactive) | > 30 µM (inactive) | > 30 µM (inactive) | > 30 µM (inactive) | c1cc(OCCN2CCCCC2)cc(-c2n[nH]c3ccc(-c4nc[nH]n4)cc23)c1 [CC-401]

Row | SMILES | Kd (Activin receptor type-1B) | Kd [1] | Kd [2] | Kd [3] | Kd [4] | Kd (Ephrin type-A receptor 2) | Kd (Insulin receptor) | Kd [5] | Kd [6] | Kd [7]
13 | N#CCNC(=O)c1ccc(-c2ccnc(Nc3ccc(N4CCOCC4)cc3)n2)cc1 [MOMELOTINIB] | > 30 µM (inactive) | – | > 30 µM (inactive) | > 30 µM (inactive) | – | > 30 µM (inactive) | > 30 µM (inactive) | > 30 µM (inactive) | 0.219 µM (active) | > 30 µM (inactive)
14 | Cc1c(Cn2c(C)nc3c(C(=O)O)cc(N4CCOCC4)cc32)cccc1C(F)(F)F [GSK-2636771] | > 30 µM (inactive) | > 30 µM (inactive) | > 30 µM (inactive) | – | > 30 µM (inactive) | > 30 µM (inactive) | > 30 µM (inactive) | > 30 µM (inactive) | > 30 µM (inactive) | > 30 µM (inactive)
15 | C=CCN(/C=C1/C(=O)O[C@H](COC)[C@@]2(C)C1=C(O)C(=O)C1=C2[C@H](OC(C)=O)C[C@]2(C)C(=O)CC[C@@H]12)CC=C [SONOLISIB] | > 30 µM (inactive) | > 30 µM (inactive) | > 30 µM (inactive) | – | > 30 µM (inactive) | > 30 µM (inactive) | > 30 µM (inactive) | > 30 µM (inactive) | > 30 µM (inactive) | > 30 µM (inactive)
